Results published in US20180140578A1, “METHODS AND COMPOSITIONS FOR THE DIAGNOSIS AND SELECTIVE TREATMENT OF CANCER” (Board of Regents of the University of Texas System, priority 2016, published 2018).

Tests used:
[1] = tested on: indisulam resistant HCT-116 clones; experiment: Cell viability assay, indisulam resistant clones; format: cell-based, human
Experimental: The methods for generating a population of barcoded HCT-116 cells were described before (20). […] Clones that appeared after the selection was then expanded and barcode genotyped to identify six clones with unique barcodes. […] Source data for exome sequencing data is available under NCBI SRA accession SRP068238. Bortezomib resistant clones were isolated by selection with 5 nM bortezomib, and MLN4924 resistant clones with 40 nM MLN4924.
12-point dose responses were performed on 96-well assay plates with cell plating (1500-4000 cell per well) on day 1, compound addition on day 2, and survival measurement on day 5. Compounds were diluted in DMSO before adding to the cells. Final DMSO concentration was 0.5%. Cell survival assay was performed using CellTiter-Glo Luminescent Cell Viability Assay kit (Promega) that measures cellular ATP content. Luminescence was recorded by EnVison multimode plate reader (Perkin Elmer). IC50 was determined with GraphPad Prism using baseline correction (by normalizing to DMSO control), the asymmetric (five parameter) equation and least squares fit.

[2] = target: T1, RBM39-3xFLAG complex (Homo sapiens, UniProt Q14498+Q66K64); experiment: Immunoprecipitation of RBM39 complex +/− indisulam, LC-MS/MS (Table 1); settings: H1155 RBM39-3xFLAG cells; 10 μM indisulam 2 hours
T1 construct: endogenous in cells; host or cells: H1155 RBM39-3xFLAG knock-in cells
Experimental: Anti-Flag M2 antibody (Sigma-Aldrich) was coupled to Dynabeads M-270 epoxy beads (Life Technologies) at the ratio of 10 μg of antibody/mg beads. […] Frozen cells were then pulverized in the a cryomill (Retsch) with one 25 mm steel ball and five cycles of three min at 25 Hz with intermittent cooling in liquid nitrogen. […] The lysates were centrifuged at 8000 g for 5 min at 4° C. 12 mg of conjugated Anti-Flag magnetic beads were mixed with clarified lysates for 5 min at 4° C. on a rotating platform, followed by three washes with IP buffer. Bound proteins were eluted with 1 mg/ml 3xFLAG peptide, followed by SDS-PAGE on a 10% Bis Tris gel. After brief electrophoresis, bands containing all the proteins were cut with clean blades. For western blotting of co-immunoprecipitated proteins, anti-DDA1 (ProteinTech, 14995-1-AP, 1:1000), anti-DDB1 (Abcam, ab109027, 1;10000), anti-CUL4A (Cell Signaling, 2699, 1:1000), anti-CUL4B (ProteinTech, 12916-1-AP, 1:1000) were used.
Excised gel bands were cut into approximately 1 mm^3 pieces. Gel pieces were then subjected to a modified in-gel trypsin digestion procedure (46). Gel pieces were washed and dehydrated with acetonitrile for 10 min. followed by removal of acetonitrile. Pieces were then completely dried in a speed-vac. […] Peptides were detected, isolated, and fragmented to produce a tandem mass spectrum of specific fragment ions for each peptide. […]

SMILES: NS(=O)(=O)c1ccc(S(=O)(=O)Nc2cccc3c(Cl)c[nH]c23)cc1 [Indisulam, indisulam]
- IC50 ([1]; Homo sapiens, HCT-116): 9.3 µM
- sensitivity of indisulam resistant clones ([1]; five of six clones, concentrations as high as 50): insensitive
- times less sensitive than the parental HCT-116 cells ([1]; sixth indisulam resistant clone): 17 times
- recruitment of RBM39 to CUL4, DDB1, DDA1, DCAF15 CRL complex (shotgun mass spectrometry) [2]: induces recruitment of RBM39
